Measurements published in ChEMBL document CHEMBL4828717, “Synthetic cajaninstilbene acid derivatives eradicate methicillin-resistant Staphylococcus aureus persisters and biofilms” (Eur J Med Chem, 2021).

Legend:
Staphylococcus aureus [1] = assay: Antibacterial activity against methicillin resistant Staphylococcus aureus ATCC48966 assessed as reduction in microbial growth after 16 to 18 hrs by microbroth dilution method; assay type: functional; conditions: time 16-18 hrs
L02 = assay: Cytotoxicity against human L02 cells assessed as cell viability at 10 ug/ml measured after 24 hrs by MTT assay; assay type: cell-based; conditions: l02, 24 h, dose 10 µg/ml
Staphylococcus aureus [2] = assay: Antibacterial activity against methicillin resistant Staphylococcus aureus ATCC 62202 assessed as reduction in microbial growth after 16 to 18 hrs by microbroth dilution method; assay type: functional; conditions: time 16-18 hrs
Staphylococcus aureus [3] = assay: Antibacterial activity against methicillin resistant Staphylococcus aureus ATCC 43300 assessed as reduction in microbial growth after 16 to 18 hrs by microbroth dilution method; assay type: functional; conditions: time 16-18 hrs
Staphylococcus aureus [4] = assay: Antibacterial activity against methicillin resistant Staphylococcus aureus ATCC49800 assessed as reduction in microbial growth after 16 to 18 hrs by microbroth dilution method; assay type: functional; conditions: time 16-18 hrs
RAW264.7 = assay: Cytotoxicity against mouse RAW264.7 cells assessed as cell viability at 10 ug/ml measured after 24 hrs by MTT assay; assay type: cell-based; conditions: raw264.7, 24 h, dose 10 µg/ml
Staphylococcus aureus [5] = assay: Antibacterial activity against methicillin resistant Staphylococcus aureus ATCC49008 assessed as reduction in microbial growth after 16 to 18 hrs by microbroth dilution method; assay type: functional; conditions: time 16-18 hrs
Staphylococcus aureus [6] = assay: Antibacterial activity against methicillin resistant Staphylococcus aureus ATCC 52056 assessed as reduction in microbial growth after 16 to 18 hrs by microbroth dilution method; assay type: functional; conditions: time 16-18 hrs
Staphylococcus aureus [7] = assay: Antibacterial activity against methicillin resistant Staphylococcus aureus ATCC49025 assessed as reduction in microbial growth after 16 to 18 hrs by microbroth dilution method; assay type: functional; conditions: time 16-18 hrs
Pseudomonas aeruginosa = assay: Antibacterial activity against Pseudomonas aeruginosa ATCC27853 assessed as reduction in microbial growth after 16 to 18 hrs by microbroth dilution method; assay type: functional; conditions: time 16-18 hrs
Staphylococcus aureus [8] = assay: Antibacterial activity against Staphylococcus aureus ATCC 25923 assessed as reduction in microbial growth after 16 to 18 hrs by microbroth dilution method; assay type: functional; conditions: time 16-18 hrs
Staphylococcus aureus [9] = assay: Antibacterial activity against methicillin resistant Staphylococcus aureus ATCC48073 assessed as reduction in microbial growth after 16 to 18 hrs by microbroth dilution method; assay type: functional; conditions: time 16-18 hrs
Staphylococcus aureus [10] = assay: Antibacterial activity against methicillin resistant Staphylococcus aureus ATCC515992 assessed as reduction in microbial growth after 16 to 18 hrs by microbroth dilution method; assay type: functional; conditions: time 16-18 hrs
Staphylococcus aureus [11] = assay: Antibacterial activity against methicillin resistant Staphylococcus aureus ATCC48706 assessed as reduction in microbial growth after 16 to 18 hrs by microbroth dilution method; assay type: functional; conditions: time 16-18 hrs
Escherichia coli = assay: Antibacterial activity against Escherichia coli ATCC25922 assessed as reduction in microbial growth after 16 to 18 hrs by microbroth dilution method; assay type: functional; conditions: ATCC 25922, time 16-18 hrs
Enterococcus faecalis = assay: Antibacterial activity against Enterococcus faecalis ATCC29212 assessed as reduction in microbial growth after 16 to 18 hrs by microbroth dilution method; assay type: functional; conditions: ATCC 29212, time 16-18 hrs
Staphylococcus aureus [12] = assay: Antibacterial activity against methicillin resistant Staphylococcus aureus ATCC513045 assessed as reduction in microbial growth after 16 to 18 hrs by microbroth dilution method; assay type: functional; conditions: time 16-18 hrs

| Compound | MIC (Staphylococcus aureus [1]) [µg/mL] | Activity (L02) | MIC (Staphylococcus aureus [2]) [µg/mL] | MIC (Staphylococcus aureus [3]) [µg/mL] | MIC (Staphylococcus aureus [4]) [µg/mL] | Activity (RAW264.7) | MIC (Staphylococcus aureus [5]) [µg/mL] | MIC (Staphylococcus aureus [6]) [µg/mL] | MIC (Staphylococcus aureus [7]) [µg/mL] | MIC (Pseudomonas aeruginosa) [µg/mL] | MIC (Staphylococcus aureus [8]) [µg/mL] | MIC (Staphylococcus aureus [9]) [µg/mL] | MIC (Staphylococcus aureus [10]) [µg/mL] | MIC (Staphylococcus aureus [11]) [µg/mL] | MIC (Escherichia coli) [µg/mL] | MIC (Enterococcus faecalis) [µg/mL] | MIC (Staphylococcus aureus [12]) [µg/mL] |
| --- | --- | --- | --- | --- | --- | --- | --- | --- | --- | --- | --- | --- | --- | --- | --- | --- | --- |
| CC(C)=CCc1c(OCCCC(F)(F)F)cc(/C=C/c2ccc(F)cc2)c(C(=O)O)c1O | 4 | Toxic | 4 | 4 | 4 | Toxic | 4 | 4 | 4 | > 32 | 4 | 4 | 4 | 4 | > 32 | > 32 | 4 |
| CC(C)=CCc1c(OC2CCCCC2)cc(/C=C/c2ccc(F)cc2)c(C(=O)O)c1O | 4 | Toxic | 2 | 2 | 4 | Toxic | 4 | 2 | 4 | > 32 | 2 | 4 | 4 | 4 | > 32 | > 32 | 2 |
| CCCC(CC)Oc1cc(/C=C/c2ccc(F)cc2)c(C(=O)O)c(O)c1CC=C(C)C (stereo not drawn) | 2 | Toxic | 2 | 1 | 2 | Toxic | 2 | 2 | 2 | > 32 | 2 | 4 | 2 | 4 | > 32 | > 32 | 2 |
| CCC(C)Oc1cc(/C=C/c2ccc(F)cc2)c(C(=O)O)c(O)c1CC=C(C)C (stereo not drawn) | 4 | Toxic | 2 | 2 | 4 | Toxic | 4 | 2 | 4 | > 32 | 2 | 4 | 4 | 4 | > 32 | > 32 | 2 |
| CC1(C)S[C@@H]2[C@H](NC(=O)[C@H](N)c3ccccc3)C(=O)N2[C@H]1C(=O)O [AMPICILLIN] | > 128 |  | > 128 | > 128 | > 128 |  | > 128 | > 128 | > 128 | > 32 | 4 | > 128 | > 128 | > 128 | > 32 | > 32 | > 128 |
| CC(C)=CCc1c(OCC(F)F)cc(/C=C/c2ccc(F)cc2)c(C(=O)O)c1O | 4 | Toxic | 4 | 4 | 4 | Toxic | 4 | 2 | 4 | > 32 | 4 | 4 | 4 | 4 | > 32 | > 32 | 4 |
| NC[C@H]1O[C@H](O[C@H]2[C@H](O)[C@@H](O[C@H]3O[C@H](CO)[C@@H](O)[C@H](N)[C@H]3O)[C@H](N)C[C@@H]2N)[C@H](N)[C@@H](O)[C@@H]1O [BEKANAMYCIN] |  |  |  | 128 |  |  |  |  |  |  |  |  |  |  |  |  |  |
| CC(C)=CCc1c(OCCCF)cc(/C=C/c2ccc(C(F)(F)F)cc2)c(C(=O)O)c1O | 4 | Toxic | 4 | 2 | 4 | Toxic | 4 | 2 | 4 | > 32 | 2 | 4 | 4 | 4 | > 32 | > 32 | 2 |
| CC(C)=CCc1c(OCCF)cc(/C=C/c2ccc(C(F)(F)F)cc2)c(C(=O)O)c1O | 8 | Toxic | 4 | 2 | 8 | Toxic | 8 | 2 | 8 | > 32 | 4 | 8 | 4 | 8 | > 32 | > 32 | 4 |
| CC(C)=CCc1c(OCCC(F)(F)F)cc(/C=C/c2ccc(C(F)(F)F)cc2)c(C(=O)O)c1O | 4 | Toxic | 2 | 2 | 4 | Toxic | 4 | 2 | 4 | > 32 | 2 | 4 | 2 | 4 | > 32 | > 32 | 2 |
| CCCC(CC)Oc1cc(/C=C/c2ccc(C(F)(F)F)cc2)c(C(=O)O)c(O)c1CC=C(C)C (stereo not drawn) | 8 | Toxic | 2 | 2 | 4 | Toxic | 8 | 2 | 8 | > 32 | 4 | 4 | 4 | 4 | > 32 | > 32 | 2 |
| CCC(CC)Oc1cc(/C=C/c2ccc(C(F)(F)F)cc2)c(C(=O)O)c(O)c1CC=C(C)C | 2 | Toxic | 1 | 2 | 2 | Toxic | 2 | 1 | 2 | > 32 | 1 | 2 | 2 | 2 | > 32 | > 32 | 1 |
| CC(C)=CCc1c(OCCCC(F)(F)F)cc(/C=C/c2ccc(C(F)(F)F)cc2)c(C(=O)O)c1O | 4 | Toxic | 4 | 1 | 4 | Toxic | 4 | 2 | 4 | > 32 | 2 | 4 | 2 | 4 | > 32 | > 32 | 2 |
| CC(C)=CCc1c(OCCCCF)cc(/C=C/c2ccc(C(F)(F)F)cc2)c(C(=O)O)c1O | 4 | Toxic | 4 | 2 | 4 | Toxic | 4 | 2 | 4 | > 32 | 4 | 4 | 2 | 4 | > 32 | > 32 | 4 |
| CC(C)=CCc1c(OC2CCCCCC2)cc(/C=C/c2ccc(C(F)(F)F)cc2)c(C(=O)O)c1O | 4 | Toxic | 2 | 1 | 4 | Toxic | 4 | 1 | 4 | > 32 | 4 | 4 | 4 | 4 | > 32 | > 32 | 2 |
| COc1cc(/C=C/c2ccccc2)c(C(=O)O)c(O)c1CC=C(C)C | 8 |  | 16 | 16 | 8 |  | 8 | 16 | 8 | > 32 | 8 | 8 | 16 | 8 | > 32 | > 32 | 16 |
| GENTAMICIN |  |  |  | 16 |  |  |  |  |  |  |  |  |  |  |  |  |  |
| CCn1cc(C(=O)O)c(=O)c2cc(F)c(N3CCNCC3)cc21 [NORFLOXACIN] | 1 |  | 2 | 32 | 1 |  | 1 | 2 | 1 | > 32 | 2 | 1 | 32 | 2 | > 32 | > 32 | 32 |
